Assay results as given in ChEMBL document CHEMBL3044792, “In vitro antioxidant properties and in vivo lowering blood lipid of Forsythia suspense leaves” (Med Chem Res, 2010).
Converted amounts (≈) assume the structure as drawn. The source made the active and inactive calls. No cut-off for these calls is given here.

What was measured:
Format in all cases: functional
[1] = Antioxidant activity assessed as ferric ion reducing activity measured as trolox equivalents by FRAP assay
[2] = Antioxidant activity assessed as ABTS radical scavenging activity
[3] = test system: Radical scavenging activity; assay: Antioxidant activity assessed as DPPH radical scavenging activity after 30 min
Mus musculus [4] = assay: Hypolipidemic activity in high cholesterol diet fed Mus musculus KM (mouse) assessed as triglyceride level at 150 mg/kg, ig for 10 days (reference value: 0.9359 +/- 0.2817 mmol/l); conditions: route intragastric
Mus musculus [5] = assay: Hypolipidemic activity in high cholesterol diet fed Mus musculus KM (mouse) assessed as high density lipoprotein cholesterol at 150 mg/kg, ig for 10 days (reference value: 2.6953+/- 0,58099 mmol/l); conditions: route intragastric
Mus musculus [6] = assay: Hypolipidemic activity in high cholesterol diet fed Mus musculus KM (mouse) assessed as low density lipoprotein cholesterol at 150 mg/kg, ig for 10 days (reference value: 4.2972 +/- 1.1725 mmol/l); conditions: route intragastric
Mus musculus [7] = assay: Antioxidant activity in high cholesterol diet fed Mus musculus KM (mouse) assessed as MDA level in liver at 150 mg/kg, ig for 10 days (reference value: 13.6188 +/- 4.2522 nmol/ml); conditions: route intragastric
Mus musculus [8] = assay: Hypolipidemic activity in high cholesterol diet fed Mus musculus KM (mouse) assessed as total cholesterol level at 150 mg/kg, ig for 10 days (reference value: 7.3219 +/- 1.00196 mmol/l); conditions: route intragastric
Mus musculus [9] = assay: Antioxidant activity in high cholesterol diet fed Mus musculus KM (mouse) assessed as MDA level in liver at 70 mg/kg, ig for 10 days (reference value: 9.95 +/- 0.15 nmol/ml); conditions: route intragastric
Mus musculus [10] = assay: Hypolipidemic activity in high cholesterol diet fed Mus musculus KM (mouse) assessed as low density lipoprotein cholesterol at 70 mg/kg, ig for 10 days (reference value: 3.386 +/- 0.958 mmol/l); conditions: route intragastric
Mus musculus [11] = assay: Hypolipidemic activity in high cholesterol diet fed Mus musculus KM (mouse) assessed as high density lipoprotein cholesterol at 70 mg/kg, ig for 10 days (reference value: 1.028 +/- 0.139 mmol/l); conditions: route intragastric
Mus musculus [12] = assay: Hypolipidemic activity in high cholesterol diet fed Mus musculus KM (mouse) assessed as triglyceride level at 70 mg/kg, ig for 10 days (reference value: 1.391 +/- 0.351 mmol/l); conditions: route intragastric
Mus musculus [13] = assay: Hypolipidemic activity in high cholesterol diet fed Mus musculus KM (mouse) assessed as total cholesterol level at 70 mg/kg, ig for 10 days (reference value: 4.402 +/- 0.8 mmol/l); conditions: route intragastric

SMILES | Activity [1] | IC50 [2] | IC50 [3] | Activity (Mus musculus [4]) [mmol/L] | Activity (Mus musculus [5]) [mmol/L] | Activity (Mus musculus [6]) [mmol/L] | Activity (Mus musculus [7]) [nmol/mL] | Activity (Mus musculus [8]) [mmol/L] | Activity (Mus musculus [9]) [nmol/mL] | Activity (Mus musculus [10]) [mmol/L] | Activity (Mus musculus [11]) [mmol/L] | Activity (Mus musculus [12]) [mmol/L] | Activity (Mus musculus [13]) [mmol/L]
Cc1cc(C(C)(C)C)c(O)c(C(C)(C)C)c1 [BUTYLATED HYDROXYTOLUENE] | 1750 µmol/g | 6.04 µg/mL (≈ 27.4 µM) | 17.21 µg/mL (≈ 78.1 µM) |  |  |  |  |  |  |  |  |  | 
COc1cc([C@H]2OC[C@H]3[C@@H]2CO[C@H]3c2ccc(OC)c(OC)c2)ccc1O [PHILLYGENIN] | 2440 µmol/g | 3.58 µg/mL (≈ 9.61 µM) | 15.51 µg/mL (≈ 41.6 µM) | 0.3249 | 2.4571 | 3.1861 | 7.9321 | 7.2123 |  |  |  |  | 
O=c1c(O)c(-c2ccc(O)c(O)c2)oc2cc(O)cc(O)c12 [QUERCETIN] | inactive |  | 1.03 µg/mL (≈ 3.41 µM) |  |  |  |  |  |  |  |  |  | 
C[C@@H]1O[C@@H](OC[C@H]2O[C@@H](Oc3c(-c4ccc(O)c(O)c4)oc4cc(O)cc(O)c4c3=O)[C@H](O)[C@@H](O)[C@@H]2O)[C@H](O)[C@H](O)[C@H]1O [RUTIN] | inactive | 4.65 µg/mL (≈ 7.62 µM) | 1.83 µg/mL (≈ 3 µM) |  |  |  |  |  | 5.1 | 2.639 | 1.422 | 0.828 | 3.124
COc1cc([C@@H]2OC[C@@H]3[C@H]2CO[C@H]3c2ccc(O)c(OC)c2)ccc1O [(+)-PINORESINOL] | 2580 µmol/g | 3.08 µg/mL (≈ 8.59 µM) | 8.66 µg/mL (≈ 24.2 µM) |  |  |  |  |  |  |  |  |  | 
C[C@H]1[C@H](C)CC[C@]2(C(=O)O)CC[C@]3(C)C(=CC[C@@H]4[C@@]5(C)CC[C@H](O)C(C)(C)[C@@H]5CC[C@]43C)[C@H]12 [URSOLIC ACID] | 13.6 µmol/g | Not Active | Not Active | 0.4322 | 2.4373 | 1.5655 | 7.326 | 5.2196 |  |  |  |  | 
